From patent US20230272401A1, “COMPOSITIONS FOR FLCN GENE MODULATION AND METHODS THEREOF” (GENETIC INTELLIGENCE, INC, priority 2020, published 2023) come the findings set out here.

e = 2'-O-(2-methoxyethyl) (MOE); d = 2'-deoxy (DNA); m = 2'-O-methyl

The test system of this data set is human FLCN protein. As to the kind of experiment: Antisense inhibition of human FLCN in HEK293T cells, IC50 (Western blot). It is filed as cell-based. The conditions noted are these: 0 nM to 100 nM ASO, Lipofectamine, 2-day incubation, FLCN protein by Western blot. From the text:
The antisense oligonucleotides listed in this example have all nucleosides linked by modified phosphorothioate backbones. Bolded nucleosides presented in Table 17 indicate nucleosides that are modified with a 2′-MOE sugar modification. Underlined nucleosides presented in Table 17 indicate non-modified DNA nucleosides (deoxynucleotides). Nucleosides that are italicized indicate nucleosides with a 2′-OMe sugar modification. GI81, GI84, GI85, GI86, GI88, GI89 and GI90 are gapped sequences comprising a central sequence of deoxynucleotides, which are flanked on both sides by wing sequences consisting of 2′-MOE modified nucleotides, wherein the second nucleotide of the central sequence from the 5′ end of the oligonucleotide contains a 2′-OMe sugar modification.
These antisense oligonucleotides were tested in the human cell line HEK293T. HEK293T cells were seeded at 400,000 cells per well in a 6-well plate. After 1 day, various concentrations of antisense oligonucleotides ranging from 0 nM to 100 nM were transfected into the cells using Lipofectamine. After a 2-day incubation period, the cells were harvested to obtain whole cell lysates. The whole cell lysates were analyzed by Western blot and probed with a FLCN-specific antibody (CST #3697). The intensity of Western blot bands were quantified by FIJI (Image J) and used to quantify the expression levels of FLCN. The relative expression values of FLCN for the different treatment groups were calculated by normalizing with their respective α-Tubulin loading control, and presented as a percentage to that of the untreated control (which in this case comprised cells not transfected with ASOs). The potencies of these antisense oligonucleotides are reported in the form of IC50 values in Table 17.
As for “GI81: gapped phosphorothioate ASO, 2′-MOE wings, 2′-OMe at second gap nucleotide, TGGCTGATATATCCCGGG, Exon 5, SEQ ID NO 21 (sugars from the 5' end e4 d1 m1 d8 e4, all phosphorothioate, methylation of C not given here)”, the IC50 came out at 14 nM.

“GI88: gapped phosphorothioate ASO, 2′-MOE wings, 2′-OMe at second gap nucleotide, GCCTGGCGGACAATGCTG, Exon 5, SEQ ID NO 616 (sugars from the 5' end e4 d1 m1 d8 e4, all phosphorothioate, methylation of C not given here)” had an IC50 of 19 nM.

In turn, “GI90: gapped phosphorothioate ASO, 2′-MOE wings, 2′-OMe at second gap nucleotide, CGGGTGCCCTGCAGCAAG, Exon 5, SEQ ID NO 618 (sugars from the 5' end e4 d1 m1 d8 e4, all phosphorothioate, methylation of C not given here)” had an IC50 of 35 nM.
